Experiments:
[1] = Carbonic corrosion-inhibitory efficiency by polarization resistance in CO2-saturated NACE-type solution; conditions: 25° C., reading after 6 hours
Method: The experimental procedures intended to evaluate the corrosion-inhibitory efficiencies in carbon dioxide-saturated medium of the products used (A, B and C of Example 1) are described in this example. In order to simulate the corrosive medium, a solution of NACE type containing 50 g/l of NaCl and 0.25 mg/l of acetic acid, saturated by continuously bubbling CO2 through, depending on the case, and with inhibitor added or not added, is used.
The process is performed in a thermostatically regulated 600 ml Pyrex cell including, besides a gas inlet and outlet, three electrodes coupled to the cell by ground joints, namely a carbon-steel working electrode whose surface of contact with the corrosive solution is 1 cm^2, a saturated calomel reference electrode and a platinum counterelectrode having a very large surface of contact with the corrosive solution. 500 ml of the corrosive solution is placed in the cell, as control or with inhibitor added, after which the counterelectrode and the reference electrode are put in place. The solution is de-aerated by bubbling nitrogen through for one hour and is then saturated with CO2 by bubbling for at least one hour. In order to ensure good saturation with CO2, this gas is left to bubble through throughout the experiment.
The rate of corrosion Vcorr is measured by a method of measuring polarization resistance, which is known in the art. The corrosion rate reading is taken after stabilization for 6 hours.
The percentage of protection (%P) which allows the corrosion-inhibitory efficiency of the test product to be expressed is given by the relationship:
%P={(V^0corr−V^icorr)/V^0corr}×100
where V^0corr=rate of corrosion without inhibitor
V^icorr=rate of corrosion in the presence of a dose of inhibitor.
Table II collates the percentages of protection at room temperature (25° C.) as a function of the nature of the polymethylenepolyaminodipropionamides used and their dose.

[2] = test system: Photobacterium phosphoreum; assay: Microtox bacterial ecotoxicity test (AFNOR NF T90-320); type: cell-based; conditions: lethal concentration to destroy 50% of the population in 15 minutes
Method: (§1) The ecotoxicity measurements for various polymethylenepolyaminedipropionamides were carried out on a bacterium (Photobacterium phosphoreum) and on an alga (Skeletonema costatum) . The bacterial test is the Microtox test carried out according to AFNOR standard NF T90-320. The toxicities on Skeletonema costatum are determined according to the method ISO/DIS 10253. The Microtox toxicity is expressed as LC50 (lethal concentration in mg/l to destroy 50% of the population in 15 minutes). On Skeletonema costatum, the toxicity is expressed as EC50 (effective concentration in mg/l to inhibit the growth of 50% of the population in 72 hours).

Skeletonema costatum = assay: Algal ecotoxicity test (ISO/DIS 10253); type: cell-based; conditions: concentration to inhibit the growth of 50% of the population in 72 hours
Method: as §1

Compound: NC(=O)CCNCCNCCNCCC(N)=O [Molecule A, H2NCO—(CH2)2—NH—[—(CH2)2 —NH—]2—(CH2)2—CONH2 (RN 92009-86-4)]
- PERCENTAGE OF PROTECTION (%) ([1]; dose 10 ppm): 24%
- PERCENTAGE OF PROTECTION (%) ([1]; dose 20 ppm): 44%
- PERCENTAGE OF PROTECTION (%) ([1]; dose 50 ppm): 48%
- PERCENTAGE OF PROTECTION (%) ([1]; dose 100 ppm): 53%
- Toxicity Microtox (LC50) [2]: 128 µg/mL

Compound: NC(=O)CCNCCNCCNCCNCCC(N)=O [Molecule B, H2NCO—(CH2)2—NH—[—(CH2)2 —NH—]3—CH2)2—CONH2]
- PERCENTAGE OF PROTECTION (%) ([1]; dose 10 ppm): 34%
- PERCENTAGE OF PROTECTION (%) ([1]; dose 20 ppm): 43%
- PERCENTAGE OF PROTECTION (%) ([1]; dose 50 ppm): 48%
- PERCENTAGE OF PROTECTION (%) ([1]; dose 100 ppm): 56%
- Toxicity Microtox (LC50) [2]: 104 µg/mL

Compound: NC(=O)CCNCCCNCCNCCCNCCC(N)=O [Molecule C, H2NCO—(CH2)2—NH—(CH2)3—NH—(CH2)2—NH—(CH2)3—NH—(CH2)2—CONH2]
- PERCENTAGE OF PROTECTION (%) ([1]; dose 10 ppm): 63%
- PERCENTAGE OF PROTECTION (%) ([1]; dose 20 ppm): 70%
- PERCENTAGE OF PROTECTION (%) ([1]; dose 50 ppm): 73%
- PERCENTAGE OF PROTECTION (%) ([1]; dose 100 ppm): 82%
- Toxicity Microtox (LC50) [2]: 127 µg/mL
- Toxicity Skeletonema costatum (EC50) (Skeletonema costatum): 5 to 10 µg/mL

— US6365100B1, “Polymethylenepolyamine dipropionamides as environmentally safe inhibitors of the carbon corrosion of iron” (CECA, S.A., priority 1997, dated 2002)
